Laboratory results reported in PMC9207808 (ACS Chemical Biology, 2022).
“And” between values parts separate entries of the source, which are not always exact repeats. Equal values may be shown once. Read-outs that look alike come from different tables or passages of the source. Residues, ends and D or L forms follow the SMILES beside them. No end group written: not given here.

Key:
[1] = tested on: DocSTm; assay: Differential scanning fluorimetry (thermal stabilisation of Doc); format: binding, S. Typhimurium; details: for melting temperature shift ΔTm: DSF, DocSTm 5 μM, analyte 50 μM, Tm with analyte minus Tm of free DocSTm (42.9 ± 0.9 °C), SYPRO Orange, 20 mM K2HPO4, 50 mM (NH4)2SO4, pH 8.0, triplicate; for Average Tm / Tm: DocSTm 5 µM + 50 µM binder; for Average Tm: average of 3 replicates
Outline: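 Tm values come from fitting the sigmoidal melt region to a Boltzmann function. Doc (5 μM final) was ramped 25–95 °C with SYPRO Orange (3× final) in pH 8.0 buffer of 20 mM K2HPO4 and 50 mM (NH4)2SO4; each condition in triplicate.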

[2] = tested on: S. Typhimurium (14028) Δphd-doc::Km strains coexpressing DocSTm; assay: Growth rescue experiment in S. Typhimurium; format: cell-based; details: coexpression of DocSTm (pBAD33, arabinose) and Phd construct (pCA24N, basal expression); OD600 over time, M9 minimal medium; average of three independent experiments
Procedure: The cotransformations above were also performed with an empty pBAD33 plasmid, as a control for the absence of DocSTm expression.
For the growth rescue experiment, overnight (1% tryptone, 0.5% yeast extract, 0.5% NaCl, 1% glucose, 100 μg/mL of carbenicillin, and 34 μg/mL of chloramphenicol) cultures of the generated S. Typhimurium strains were diluted to an OD600 of approximately 0.006 into fresh M9 minimal medium supplemented with 0.5% or 1% arabinose, 0.4% glycerol, 0.4% casamino acids, 100 μg/mL of carbenicillin, and 34 μg/mL of chloramphenicol. Cell growth at a given time was monitored at OD600 with a Genesys 140 Visible Spectrophotometer (Thermo Scientific).

[3] = tested on: DocSTm; assay: Dot blot phosphorylation assay (EF-Tu phosphorylation by Doc); format: biochemical, S. Typhimurium; details: α-pThr, DocSTm 1 μM, EF-TuSTm 3 μM, ATP 1 mM, inhibitor 10 μM to 5 nM (3-fold dilutions), 16 h at RT
Outline: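 Doc-mediated phosphorylation of EF-Tu was run for 16 h at RT, then the samples were spotted on nitrocellulose. Phospho-EF-Tu was detected with a rabbit monoclonal anti-phosphothreonine antibody and an HRP anti-rabbit secondary, read by chemiluminescence.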

[4] = tested on: DocSTm; assay: Surface plasmon resonance binding to immobilised Doc; parameters: species or system S. Typhimurium; details: for koff × 10^-6 / kon × 10^6: 1:1 kinetic fit, mean ± SD of at least 3 replicates; for kon × 10^6: single-cycle kinetics (multicycle for PhdSTm1-73); for Half-life of the complex: t1/2 = ln2 / koff; for gain of affinity compared to peptide 1: SPR Kd relative to peptide 1
Outline: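 Binding constants are means ± SD of at least three replicates: steady-state Kd directly, or Kd calculated from kinetic kon and koff. Sensorgrams were double-referenced and fitted 1:1 after 80 s analyte injections (30 μL/min), either multicycle or single-cycle, over NTA-immobilised Doc. Running buffer was HEPES/500 mM NaCl/EDTA/Tween pH 8.0 at 22 °C.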

[5] = target: Doc1-122–His6 (DocSTm toxin) (Salmonella typhimurium); assay: SPR; Biacore S200; Doc-His6 captured on a Series S NTA chip (200-400 RU); peptide as analyte, single-cycle kinetics, six concentrations (3-fold dilutions), 30 uL/min; 22 C; 10 mM HEPES, 500 mM NaCl, 50 uM EDTA, 0.005% TWEEN 20, pH 8.0; kinetic 1:1 fit
[6] = target: Doc1-122–His6 (DocSTm toxin) (Salmonella typhimurium); assay: as above; remark: listed apart in the source
[7] = target: Doc toxin of Salmonella enterica serovar Typhimurium (DocSTm) (Salmonella enterica serovar Typhimurium); assay: SPR; DocSTm immobilised on a Series S NTA chip (150 nM, 200-400 RU); analytes in single-cycle kinetics, typically six concentrations, kinetic 1:1 fit; 22 °C; 10 mM HEPES, 500 mM NaCl, 50 μM EDTA, 0.005% TWEEN 20, pH 8.0
[8] = SPR, kinetic fit, KD calculated from mean koff and kon, SD propagated, 22 °C, pH 8.0

Row | Molecule | melting temperature shift ΔTm [1] | Average Tm [1] | Tm ([1]; replicate 1) | Tm ([1]; replicate 2) | Tm ([1]; replicate 3) | rescue of Salmonella growth from DocSTm-induced growth inhibition (in words) [2] | inhibition of EF-TuSTm phosphorylation by DocSTm (in words) [3] | Kd ([4]; SPR kinetic fit, replicate 1) | Kd ([4]; SPR kinetic fit, replicate 2) | Kd ([4]; SPR kinetic fit, replicate 3) | koff × 10^-6 ([4]; SPR, 22 °C, pH 8.0) | kon × 10^6 ([4]; SPR, 22 °C, pH 8.0) | Kd [4, 8] | Half-life of the complex [4] | improvement in koff compared with 1 ([4]; SPR) | improvement in kon compared with 1 ([4]; SPR) | gain of affinity compared to peptide 1 [4] | also measured
1 | CC[C@H](C)[C@H](NC(=O)[C@H](C)NC(=O)[C@H](C)NC(=O)[C@H](Cc1ccccc1)NC(=O)[C@H](CCC(=O)O)NC(=O)[C@H](CC(=O)O)NC(=O)[C@H](CC(=O)O)NC(=O)[C@H](CCSC)NC(=O)[C@H](Cc1c[nH]c2ccccc12)NC(C)=O)C(=O)N[C@@H](CCSC)C(=O)N[C@@H](C)C(=O)N[C@H](C(=O)N[C@@H](Cc1c[nH]cn1)C(=O)NCC(=O)N[C@@H](CC(N)=O)C(=O)N[C@@H](CCC(=O)O)C(=O)N[C@@H](CC(C)C)C(=O)N[C@@H](CCCNC(=N)N)C(=O)N[C@@H](CCC(=O)O)C(=O)N[C@@H](C)C(=O)N[C@@H](C)C(=O)N[C@@H](CC(=O)O)C(=O)N[C@@H](CCCCN)C(=O)O)C(C)C [peptide 17] (Ac-WMDDEFAAIMAVHGNELREAADK-OH; C-terminus assumed) | 15.2 ± 1.0 °C | 58.0 ± 0.4 °C | 58.5 °C | 57.9 °C | 57.8 °C | not able to counteract DocSTm-induced growth inhibition of Salmonella | among the poorest inhibitors of EF-TuSTm phosphorylation | 2.1 nM | 1.98 nM | 1.02 nM | 5967 ± 404 ×10^-6 s-1 | 3.837 ± 1.398 ×10^6 M-1 s-1 | 1.55 ± 0.58 nM | 0.032 ± 0.002 h |  |  |  | affinity to DocSTm greater than that of peptides 7, 10 and 14 ([4]; SPR Kd ratio): at least 12 fold; fold decrease in affinity (given as decrease/loss in Kd) compared with peptide 1 ([4]; SPR Kd relative to wild-type peptide 1): 8- to 30 fold
2 | CC[C@H](C)[C@H](NC(=O)[C@H](C)NC(=O)[C@H](C)NC(=O)[C@H](Cc1ccccc1)NC(=O)[C@H](CCC(=O)O)NC(=O)[C@H](CC(=O)O)NC(=O)[C@H](C)NC(=O)[C@H](CCSC)NC(=O)[C@H](Cc1c[nH]c2ccccc12)NC(C)=O)C(=O)N[C@@H](CCSC)C(=O)N[C@@H](C)C(=O)N[C@H](C(=O)N[C@@H](Cc1c[nH]cn1)C(=O)NCC(=O)N[C@@H](CC(N)=O)C(=O)N[C@@H](CCC(=O)O)C(=O)N[C@@H](CC(C)C)C(=O)N[C@@H](CCCNC(=N)N)C(=O)N[C@@H](CCC(=O)O)C(=O)N[C@@H](CC(C)C)C(=O)N[C@@H](C)C(=O)N[C@@H](CC(=O)O)C(=O)N[C@@H](CCCCN)C(=O)O)C(C)C [peptide 3] (Ac-WMADEFAAIMAVHGNELRELADK-OH; C-terminus assumed) | 25.6 ± 0.9 °C | 68.5 ± 0.3 °C | 68.3 °C | 68.4 °C | 68.8 °C | a faster recovery was achieved | inhibited DocSTm at similar concentrations to peptide 1 | 0.0121 nM | 0.0166 nM | 0.00992 nM | 65 ± 18 ×10^-6 s-1 | 5.073 ± 0.369 ×10^6 M-1 s-1 | 0.013 nM | 2.9 ± 0.8 h | ~1.5 fold | ~4 fold | greater than 5 fold | 
3 | peptide 4 (PhdSTm52-73-D54A) |  |  |  |  |  |  |  |  |  |  |  |  |  |  |  |  |  | Kd [5]: 0.0128 nM and 0.0166 nM and 0.0101 nM; koff [5]: 8.12e-05 s⁻¹ and 4.76e-05 s⁻¹ and 5.84e-05 s⁻¹; kon [5]: 4.89e+06 M⁻¹ s⁻¹ and 4.73e+06 M⁻¹ s⁻¹ and 4.58e+06 M⁻¹ s⁻¹; koff [6]: 6.2e-05 s⁻¹; kon [6]: 4.73e+06 M⁻¹ s⁻¹
4 | CC[C@H](C)[C@H](NC(=O)[C@H](C)NC(=O)[C@H](C)NC(=O)[C@H](Cc1ccccc1)NC(=O)[C@H](CCC(=O)O)NC(=O)[C@H](C)NC(=O)[C@H](CC(=O)O)NC(=O)[C@H](CCSC)NC(=O)[C@H](Cc1c[nH]c2ccccc12)NC(C)=O)C(=O)N[C@@H](CCSC)C(=O)N[C@@H](C)C(=O)N[C@H](C(=O)N[C@@H](Cc1c[nH]cn1)C(=O)NCC(=O)N[C@@H](CC(N)=O)C(=O)N[C@@H](CCC(=O)O)C(=O)N[C@@H](CC(C)C)C(=O)N[C@@H](CCCNC(=N)N)C(=O)N[C@@H](CCC(=O)O)C(=O)N[C@@H](CC(C)C)C(=O)N[C@@H](C)C(=O)N[C@@H](CC(=O)O)C(=O)N[C@@H](CCCCN)C(=O)O)C(C)C [peptide 4] (Ac-WMDAEFAAIMAVHGNELRELADK-OH; C-terminus assumed) | 26.2 ± 0.9 °C | 69.1 ± 0.2 °C | 69.0 °C | 69.3 °C | 69.1 °C | restored bacterial growth following similar kinetics as the wild-type sequence | inhibited DocSTm at similar concentrations to peptide 1 | 0.0128 nM | 0.0166 nM | 0.0101 nM | 62 ± 17 ×10^-6 s-1 | 4.733 ± 0.155 ×10^6 M-1 s-1 | 0.013 nM | 3.1 ± 0.8 h | ~1.5 fold | ~4 fold | greater than 5 fold | 
5 | Ac-WMDDEFAAIMAVHGNELREAADK [peptide 17 (Phd 52-73 L70A)] |  |  |  |  |  |  |  |  |  |  |  |  |  |  |  |  |  | Kd [7]: 1.55 nM
